These results are taken from patent US20260116868A1 (Arcus Biosciences, Inc., priority 2023, published 2026).

Structures are written as SMILES. Read-outs that look alike come from different tables or passages of the source.

What is called EC50 is the concentration at which the effect is half-maximal. For orientation: IC50 means the concentration that gives 50% inhibition. A low value points to higher potency.

One test relates to Jurkat cells. Kind of test: IL-2 secretion assay in Jurkat cells activated with CD3/CD28 T Cell Activator. The format is cell-based. Particulars: Homo sapiens, 24 h, read-out: IL-2 Secretion (EC50). As to the method:
Certain compounds were also evaluated in an IL-2 secretion assay. On the day of the assay, a 16 point, 1:2 master serial dilution of each compound was prepared in Opti-MEM to span a final concentration range of 10 μM to 300 pM. Assays were set up in CORNING® tissue culture-treated 384-well microplates containing 60 nL of each dilution. Jurkat cells grown in RPMI-1640 supplemented with 10% FBS, 1% Glutamax, and 1% Pen/Strep were collected, resuspended in Opti-MEM. 50,000 cells/well and added to the compound plates. After a short spin (1200 rpm for 1 min), the plates were incubated at 37° C. for 1 hour. The cells were activated by adding 15 μL of IMMUNOCULT™ Human CD3/CD28 T Cell Activator (STEMCELL Technologies) diluted in Opti-MEM. After 24 h of incubation at 37° C., aliquots of culture supernatants were transferred to OptiPlate-384 (PerkinElmer) microplates. The level of IL-2 secretion in the supernatants was then determined using the IL-2 (human) AlphaLISA Detection Kit (PerkinElmer) according to the manufacturer's recommendations. The AlphaLISA signal was measured using an EnVision plate reader (PerkinElmer). EC50 values were determined by fitting the data to a standard 4-parameter logistic equation. See Table 7 for data for select compounds (IL-2 Secretion (EC50)).

The next test concerns the target T1, Cbl-b (Homo sapiens, UniProt Q13191).
T1 construct: biotin (biotinylated protein)
The experiment in a line: Cbl-b probe displacement HTRF binding assay. The settings on record: 0.4 nM Cbl-b, 150 nM BODIPY probe. The method in brief:
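Binding IC50 from four-parameter fit of HTRF signal loss, normalised to DMSO (0%) and no-protein (100%) wells. Biotinylated Cbl-b 0.4 nM was preincubated 60 min with compound (20-point 1:2 dilution) before 15 min with 150 nM BODIPY probe; Tb-streptavidin detection.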
(In general: Time-resolved FRET reads energy transfer from a long-lived donor to a nearby acceptor.)

Setting [1] is: Jurkat cells, CD3/CD28 T Cell Activator, IL-2 AlphaLISA.

T1 sequence (Q13191 whole entry, species assumed): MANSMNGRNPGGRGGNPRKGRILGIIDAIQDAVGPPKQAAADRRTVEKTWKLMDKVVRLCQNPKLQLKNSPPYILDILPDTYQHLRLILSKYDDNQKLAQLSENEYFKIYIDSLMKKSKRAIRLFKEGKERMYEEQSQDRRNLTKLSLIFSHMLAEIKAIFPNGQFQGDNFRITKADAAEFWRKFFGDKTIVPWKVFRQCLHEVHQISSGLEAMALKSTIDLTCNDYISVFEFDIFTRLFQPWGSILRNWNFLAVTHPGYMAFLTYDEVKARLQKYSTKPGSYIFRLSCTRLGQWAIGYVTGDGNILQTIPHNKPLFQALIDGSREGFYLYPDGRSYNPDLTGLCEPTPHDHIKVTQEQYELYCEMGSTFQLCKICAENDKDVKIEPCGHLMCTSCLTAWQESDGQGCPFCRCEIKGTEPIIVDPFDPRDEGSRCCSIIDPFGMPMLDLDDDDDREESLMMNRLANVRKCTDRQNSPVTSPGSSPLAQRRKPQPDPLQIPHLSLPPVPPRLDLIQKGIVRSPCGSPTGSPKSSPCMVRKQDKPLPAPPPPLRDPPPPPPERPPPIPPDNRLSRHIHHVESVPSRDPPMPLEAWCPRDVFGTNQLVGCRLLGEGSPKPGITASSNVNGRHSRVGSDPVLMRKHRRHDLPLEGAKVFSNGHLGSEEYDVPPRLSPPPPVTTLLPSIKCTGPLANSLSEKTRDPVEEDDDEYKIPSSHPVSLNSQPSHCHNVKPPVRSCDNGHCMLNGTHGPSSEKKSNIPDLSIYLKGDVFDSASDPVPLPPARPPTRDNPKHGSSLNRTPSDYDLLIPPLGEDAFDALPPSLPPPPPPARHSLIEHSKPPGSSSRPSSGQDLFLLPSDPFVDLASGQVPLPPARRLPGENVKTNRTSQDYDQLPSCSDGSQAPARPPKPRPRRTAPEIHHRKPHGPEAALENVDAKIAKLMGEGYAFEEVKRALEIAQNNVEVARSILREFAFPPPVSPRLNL

As to `COCCNCc1cc(C(=O)Nc2cc(-c3ccc(F)cc3-n3cc(CF)nn3)cc(C3CC3)n2)c(=O)n(C2CC2)c1` [Example 73, 1-Cyclopropyl-N-[6-cyclopropyl-4-[4-fluoro-2-[4-(fluoromethyl)triazol-1-yl]phenyl]pyridin-2-yl]-5-[(2-methoxyethylamino)methyl]-2-oxopyridine-3-carboxamide], the EC50 with Jurkat cells (setting [1]) lay within 1 to 5 µM. On Cbl-b, this molecule gave an IC50 of 0.1 to 1 µM.

For `COCCNCc1cc(C(=O)Nc2cc(-c3ccc(C#N)cc3-c3ocnc3C)cc(C3CC3)n2)c(=O)n(C2CC2)c1` [Example 52, N-{4-[4-cyano-2-(4-methyl-1,3-oxazol-5-yl)phenyl]-6-cyclopropyl-2-pyridyl}-1-cyclopropyl-5-[(2-methoxyethylamino)methyl]-2-oxo-1,2-dihydronicotinamide], the EC50 with Jurkat cells (setting [1]) was more than 5 µM. In addition, the IC50 on Cbl-b is 1 to 5 µM.

For the molecule `COCCNCc1cc(C(=O)Nc2cc(-c3ccc(C#N)cc3-c3ncoc3C)cc(C3CC3)n2)c(=O)n(CC2CC2)c1` [Example 64, N-{4-[4-cyano-2-(5-methyl-1,3-oxazol-4-yl)phenyl]-6-cyclopropyl-2-pyridyl}-1-(cyclopropylmethyl)-5-[(2-methoxyethylamino)methyl]-2-oxo-1,2-dihydronicotinamide], the concentration giving a half-maximal response (EC50) in the test with Jurkat cells (setting [1]) was 0.1 to 1 µM. The IC50 on Cbl-b was less than 0.1 µM.

For `COCCNCc1cc(C(=O)Nc2cc(-c3ccc(C#N)cc3-c3[nH]c(C)nc3C)cc(C3CC3)n2)c(=O)n(C2CC2)c1` [Example 54, N-{4-[4-cyano-2-(2,4-dimethyl-5-imidazolyl)phenyl]-6-cyclopropyl-2-pyridyl}-1-cyclopropyl-5-[(2-methoxyethylamino)methyl]-2-oxo-1,2-dihydronicotinamide], the half-maximal effective concentration (EC50) with Jurkat cells (Jurkat) is 0.1 to 1 µM. In addition, on Cbl-b, the IC50 is less than 0.1 µM.

Take `COCCN(C)Cc1cc(C(=O)Nc2cc(-c3ccc(F)cc3-c3nncn3C)cc(C3CC3)n2)c(=O)n(C2CC2)c1` [Example 6, N-{6-cyclopropyl-4-[4-fluoro-2-(4-methyl-4H-1,2,4-triazol-3-yl)phenyl]-2-pyridyl}-1-cyclopropyl-5-{[(2-methoxyethyl)-N-methylamino]methyl}-2-oxo-1,2-dihydronicotinamide]: the EC50 with Jurkat cells (setting [1]) was 1 to 5 µM. At Cbl-b, the IC50 is less than 0.1 µM.

Turning to `C[C@H]1CCCN(Cc2cc(C(=O)Nc3cc(-c4ccc(F)cc4-c4nncn4C)cc(C4CC4)n3)c(=O)n(CC3CCOCC3)c2)C1` [Example 60, N-[6-cyclopropyl-4-[4-fluoro-2-(4-methyl-1,2,4-triazol-3-yl)phenyl]pyridin-2-yl]-5-[[(3S)-3-methylpiperidin-1-yl]methyl]-1-(oxan-4-ylmethyl)-2-oxopyridine-3-carboxamide], the EC50 in the test on Jurkat cells (setting [1]) was in the range of 0.1 to 1 µM. On Cbl-b, this molecule returned an IC50 of less than 0.1 µM.

Take `C[C@H]1CCCN(Cc2cc(C(=O)Nc3cc(-c4ccc(F)cc4-c4nncn4C)cc(C4CC4)n3)c(=O)n(CC3CC3)c2)C1` [Example 56, N-[6-cyclopropyl-4-[4-fluoro-2-(4-methyl-1,2,4-triazol-3-yl)phenyl]pyridin-2-yl]-1-(cyclopropylmethyl)-5-[[(3S)-3-methylpiperidin-1-yl]methyl]-2-oxopyridine-3-carboxamide]: the EC50 in the test with Jurkat cells (setting [1]) was less than 0.1 µM. Besides, the IC50 on Cbl-b was less than 0.1 µM.

With `[2H]C([2H])([2H])n1ccnc1-c1cc(C#N)ccc1-c1cc(NC(=O)c2cc(CNCCOC)cn(C3CC3)c2=O)nc(C2CC2)c1` [Example 45, N-[4-(4-cyano-2-{1-[(^2H3)methyl]-2-imidazolyl}phenyl)-6-cyclopropyl-2-pyridyl]-1-cyclopropyl-5-[(2-methoxyethylamino)methyl]-2-oxo-1,2-dihydronicotinamide], the EC50 in the test on Jurkat cells (setting [1]) is less than 0.1 µM. Moreover, on Cbl-b, the IC50 is less than 0.1 µM.

As for `O=C(Nc1cc(-c2ccc(OC(F)F)cc2C(=O)N2CC(F)(F)C2)cc(C2CC2)n1)c1cc(CNCC2CCCO2)cn(C2CC2)c1=O` (stereo in doubt) [Example 84, N-(6-cyclopropyl-4-{2-[(3,3-difluoro-1-azetidinyl)carbonyl]-4-difluoromethoxyphenyl}-2-pyridyl)-5-[({[(R)-tetrahydro-2-furyl]methyl}amino)methyl]-1-cyclopropyl-2-oxo-1,2-dihydronicotinamide], in the test on Jurkat cells (setting [1]), the EC50 is less than 0.1 µM. Also, the IC50 at Cbl-b is less than 0.1 µM.

In the case of `CCOc1cc(-c2ccc(Cl)cc2C(=O)N2CC(F)(F)C2)cc(NC(=O)c2cc(CNC[C@@H]3CCCO3)cn(C3CC3)c2=O)n1` [Example 91, N-(4-{4-chloro-2-[(3,3-difluoro-1-azetidinyl)carbonyl]phenyl}-6-ethoxy-2-pyridyl)-5-[({[(S)-tetrahydro-2-furyl]methyl}amino)methyl]-1-cyclopropyl-2-oxo-1,2-dihydronicotinamide], the EC50 in the test with Jurkat cells (setting [1]) is less than 0.1 µM.

As for `CO[C@@H](C)CNCc1cc(C(=O)Nc2cc(-c3ccc(OC(F)F)cc3C(=O)N3CC(F)(F)C3)cc(C3CC3)n2)c(=O)n(C2CC2)c1` [Example 89, N-(6-cyclopropyl-4-{2-[(3,3-difluoro-1-azetidinyl)carbonyl]-4-difluoromethoxyphenyl}-2-pyridyl)-5-{[(S)-2-methoxypropylamino]methyl}-1-cyclopropyl-2-oxo-1,2-dihydronicotinamide], the EC50 in the test with Jurkat cells (setting [1]) is less than 0.1 µM.

With `CO[C@@H](C)CNCc1cc(C(=O)Nc2cc(-c3ccc(Cl)cc3C(=O)N3CC(F)(F)C3)cc(OCC(F)(F)F)n2)c(=O)n(C2CC2)c1` [Example 82], the EC50 with Jurkat cells (setting [1]) was less than 0.1 µM.

For the molecule `O=C(Nc1cc(-c2ccc(Cl)cc2C(=O)N2CC(F)(F)C2)cc(C2CC2)n1)c1cc(CNC[C@@H]2CCCO2)cn(C2CC2)c1=O` [Example 90, N-(4-{4-chloro-2-[(3,3-difluoro-1-azetidinyl)carbonyl]phenyl}-6-cyclopropyl-2-pyridyl)-5-[({[(S)-tetrahydro-2-furyl]methyl}amino)methyl]-1-cyclopropyl-2-oxo-1,2-dihydronicotinamide], the EC50 with Jurkat cells (setting [1]) was less than 0.1 µM.

Regarding `CO[C@@H](C)CNCc1cc(C(=O)Nc2cc(-c3ccc(OC(F)F)cc3C(=O)N3CC(F)(F)C3)cc(C3CC3)n2)c(=O)n(C)c1` [Example 87, N-[6-cyclopropyl-4-[2-(3,3-difluoroazetidine-1-carbonyl)-4-(difluoromethoxy)phenyl]pyridin-2-yl]-5-[[[(2S)-2-methoxypropyl]amino]methyl]-1-methyl-2-oxopyridine-3-carboxamide], the EC50 with Jurkat cells (setting [1]) was more than 5 µM.

With `Cn1cc(CNC[C@@H]2CCCO2)cc(C(=O)Nc2cc(-c3ccc(OC(F)F)cc3C(=O)N3CC(F)(F)C3)cc(C3CC3)n2)c1=O` [Example 88, N-[6-cyclopropyl-4-[2-(3,3-difluoroazetidine-1-carbonyl)-4-(difluoromethoxy)phenyl]pyridin-2-yl]-1-methyl-2-oxo-5-[[[(2S)-oxolan-2-yl]methylamino]methyl]pyridine-3-carboxamide], the EC50 in the test with Jurkat cells (setting [1]) was less than 0.1 µM.

Turning to `COCCNCc1cc(C(=O)Nc2cc(-c3ccc(F)cc3C(=O)N3CC(F)(F)C3)cc(C3CC3)n2)c(=O)n(C2CC2)c1` [Example 68, N-(6-cyclopropyl-4-{2-[(3,3-difluoro-1-azetidinyl)carbonyl]-4-fluorophenyl}-2-pyridyl)-1-cyclopropyl-5-[(2-methoxyethylamino)methyl]-2-oxo-1,2-dihydronicotinamide], the EC50 in the test on Jurkat cells (setting [1]) was less than 0.1 µM.

In the case of `CC(C)Nc1cc(-c2ccc(Cl)cc2C(=O)N2CC(F)(F)C2)cc(NC(=O)c2cc(CNC[C@@H]3CCCO3)cn(C3CC3)c2=O)n1` [Example 92, N-(4-{4-chloro-2-[(3,3-difluoro-1-azetidinyl)carbonyl]phenyl}-6-(isopropylamino)-2-pyridyl)-5-[({[(S)-tetrahydro-2-furyl]methyl}amino)methyl]-1-cyclopropyl-2-oxo-1,2-dihydronicotinamide], the EC50 in the test on Jurkat cells (setting [1]) was less than 0.1 µM.

Consider `CC(C)CNCc1cc(C(=O)Nc2cc(-c3ccc(OC(F)F)cc3C(=O)N3CC(F)(F)C3)cc(C3CC3)n2)c(=O)n(C2CC2)c1` [Example 85, N-(6-cyclopropyl-4-{2-[(3,3-difluoro-1-azetidinyl)carbonyl]-4-difluoromethoxyphenyl}-2-pyridyl)-1-cyclopropyl-5-[(isobutylamino)methyl]-2-oxo-1,2-dihydronicotinamide], for which the 50% effective concentration (EC50) in the test on Jurkat cells (setting [1]) is less than 0.1 µM.

For the molecule `N#Cc1ccc(-c2cc(NC(=O)c3cc(CNC[C@@H]4CCCO4)cn(CC(F)(F)F)c3=O)nc(C3CC3)c2)c(C(=O)N2CC(F)(F)C2)c1` [Example 93, N-[4-[4-cyano-2-(3,3-difluoroazetidine-1-carbonyl)phenyl]-6-cyclopropylpyridin-2-yl]-2-oxo-5-[[[(2S)-oxolan-2-yl]methylamino]methyl]-1-(2,2,2-trifluoroethyl)pyridine-3-carboxamide], in the test with Jurkat cells (setting [1]), the EC50 is less than 0.1 µM.
